Measured values as given in US11858879B2, “PARG inhibitors and method of use thereof” (City of Hope, priority 2017, dated 2024).

Target: T1, PARG (Homo sapiens, UniProt Q86W56)
T1 construct: Recombinant full length PARG protein is generated from Sf9 insect cells; made in house; host or cells: Sf9 insect cells
Assay: PAR digestion assay (dot blotting with anti-PAR antibody)
Type: biochemical
Details: PARG incubated with PAR for 20 min at room temperature with or without inhibitors, dot blot with anti-PAR antibody
Procedure: Development of potent and cell-permeant PARG inhibitors via multi-step virtual screening and hierarchical selection. Forty candidates from National Cancer Institute (NCI) were selected to examine the efficacy of PARG inhibition by dot blot assay. PARG was incubated with PAR for 20 min at room temperature with or without inhibitors. PAR-digestion results were analyzed using dot blotting with anti-PAR antibody. […] PC and NC mean positive control (PAR only) and negative control (no inhibitor), respectively. IC50 value of compound 34 was measured by dot blotting with anti-PAR antibody in a dose course of compound 34.
PAR digestion assay: Recombinant PARG protein were incubated with PAR (10 μM, calculated as the ADP-ribose unit) and DMSO (Negative control, NC) or small molecules for 20 minutes at room temperature. Positive control (PC) only contains PAR in PBS. Samples were spotted onto a nitrocellulose membrane. The membrane was blocked with TBST buffer (0.15 M NaCl, 0.01 M Tris-HCl at pH 7.4, 0.1% Tween 20) supplemented with 5% milk and extensively washed with TBST. The membrane was examined by anti-PAR antibody.
Recombinant full length PARG protein is generated from Sf9 insect cells. Recombinant PAR is purified from a biochemical assay using PARP1. PARG is incubated with PAR in the presence of DMSO (Negative control, NC) or small chemical compounds for 20 minutes at room temperature. […]

T1 sequence (Q86W56 whole entry): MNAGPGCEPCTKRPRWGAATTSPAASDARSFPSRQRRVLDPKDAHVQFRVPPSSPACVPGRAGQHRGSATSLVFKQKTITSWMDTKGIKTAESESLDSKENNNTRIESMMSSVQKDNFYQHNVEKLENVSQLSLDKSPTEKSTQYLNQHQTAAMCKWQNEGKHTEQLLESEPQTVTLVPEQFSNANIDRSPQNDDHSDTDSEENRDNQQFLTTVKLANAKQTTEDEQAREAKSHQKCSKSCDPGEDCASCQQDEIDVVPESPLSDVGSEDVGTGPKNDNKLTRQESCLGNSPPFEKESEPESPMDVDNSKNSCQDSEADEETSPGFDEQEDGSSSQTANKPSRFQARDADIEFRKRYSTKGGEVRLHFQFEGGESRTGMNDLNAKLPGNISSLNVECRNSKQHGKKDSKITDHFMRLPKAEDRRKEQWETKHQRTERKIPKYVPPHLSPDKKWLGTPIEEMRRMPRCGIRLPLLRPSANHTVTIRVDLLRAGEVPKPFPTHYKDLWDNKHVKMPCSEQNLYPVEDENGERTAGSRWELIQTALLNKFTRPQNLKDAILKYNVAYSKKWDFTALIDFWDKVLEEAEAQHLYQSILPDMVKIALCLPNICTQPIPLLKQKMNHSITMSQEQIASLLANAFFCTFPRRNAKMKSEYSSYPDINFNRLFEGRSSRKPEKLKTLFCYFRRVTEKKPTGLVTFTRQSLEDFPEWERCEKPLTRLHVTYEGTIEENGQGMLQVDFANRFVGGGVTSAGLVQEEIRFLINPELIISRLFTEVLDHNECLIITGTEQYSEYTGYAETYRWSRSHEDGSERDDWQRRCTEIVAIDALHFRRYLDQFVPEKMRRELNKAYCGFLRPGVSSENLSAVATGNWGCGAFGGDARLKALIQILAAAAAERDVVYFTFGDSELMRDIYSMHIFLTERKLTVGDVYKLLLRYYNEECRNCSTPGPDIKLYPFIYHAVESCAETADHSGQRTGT

inhibitory activity for PARG: inhibitory activity
inhibitory activity for PARG (listed as #34): good inhibitory activity
Structure (SMILES): Cc1ccc(S/N=C/c2c(O)ccc3ccccc23)cc1 [Compound 34]
